Source: US20220252625A1, “TREATMENT AND DIAGNOSIS OF CHRONIC INFLAMMATORY CONDITIONS IN THE LOWER URINARY TRACT” (SELECTIMMUNE PHARMA AB, priority 2019, published 2022)
Entries after “also recorded” stand apart in the source; their conditions may differ.

Key:
Format in all cases: in vivo, human
[1] = tested on: patients with bladder pain syndrome (BPS); assay: Open label trial, ten BPS patients: symptoms, quality of life, side effects
Protocol: The inventors have tested the hypothesis that IL-1RA treatment may be useful to alleviate bladder pain. Ten patients with BPS were enrolled in an investigator-driven open trial. The patients received daily Kineret treatment (100 mg) for seven days. Treatment was then transiently interrupted and if the symptoms returned, treatment was resumed.
(§1) a) Schematic of the study protocol. Ten patients with a long history of BPS (ref EAU guidelines) were enrolled after informed consent and instructed to fill in a questionnaire detailing frequency of urination, pain, frequency of pain medication and quality of life. Laboratory samples were obtained at diagnosis, after the initiation of Kineret treatment (n=10), during the “treatment break” and after continuation of Kineret treatment (n=9). Neuropeptides involved in the pain response (Substance P) were quantified in urine. Peripheral blood RNA was subjected to genome wide transcriptomic analysis to define molecular effects of Kineret treatment.
In this study, we addressed if IL-1RA treatment might be efficient in patients with chronic bladder pain. We conducted an explorative, open label trial in patients with BPS (Table 5). Patients received daily subcutaneous injections of Anakinra (100 mg) for seven days and the therapeutic effects were recorded. To address potential placebo effects, treatment was transiently interrupted for a maximum of 14 days and when the symptoms returned, treatment was resumed and continued with individual treatment regimes. […] In the remaining patients, bladder pathology was not detected. During the study, patients were instructed to keep a symptom journal recording the sensation of pain and the frequency of micturition.

[2] = tested on: patients with chronic pelvic pain syndrome (CPPS); assay: Investigator driven open trial, ten CPPS patients: symptoms, quality of life, side effects
Protocol: Here we identify that IL-1RA treatment may be useful to alleviate bladder pain. The hypothesis was evaluated by enrolling ten patients with chronic pelvic pain syndrome, (CPPS) in an investigator driven open trial (see below and FIG. 7). The patients received daily anakinra treatment (100 mg) until a stable response was observed. Treatment was then transiently interrupted and when the symptoms returned, treatment was resumed. Patient 10 remained asymptomatic.
Ten patients with a long history of CPPS were enrolled after informed consent (age, gender, disease profile) and instructed to fill in a questionnaire detailing frequency of urination, pain, frequency of pain medication and quality of life.
A significant reduction in pain, urgency and frequency of urination was recorded in 9/10 patients (FIGS. 7c, 7d and 7e). Laboratory samples were obtained at diagnosis, after the initiation of anakinra treatment (n=10), during the “treatment break” and after continuation of anakinra treatment (n=9). Urine neuropeptides involved in the pain response (Substance P) were inhibited, with a biphasic response following the symptom score (FIG. 7f).

Substance P = assay: BPS trial: urine Substance P / neuropeptide levels; details: for urine SP / neuropeptide levels, words: in vivo
Source text: as §1

IL-1β = assay: Urine IL-1β concentration, patients with chronic cystitis; details: FIG. 5
Protocol: Samples: Blood and urine samples for investigation of inflammatory processes as well as genetic and proteomic analyses.
For evaluation of the levels of systemic and local inflammatory processes, analyses of CRP, neutrophil count and Interleukins are performed in serum and urine.
To be able to define a treatment group where anakinra might serve as an effective therapeutic option, we searched for urine biomarkers. In addition to patient urine samples, samples were collected from healthy controls to compare urine concentrations of IL-1β and Substance P (SP). […] In contrast, SP concentrations was increased in patients during maximum symptoms (209 vs 75 pg/ml, P=0.003), indicating a biomarker for bladder inflammation (FIG. 2).

[3] = tested on: neuroinflammation and IL-1-dependent gene expression; assay: Ten-patient CPPS trial: gene expression analysis of peripheral blood RNA
Source text: Blood samples for DNA- and RNA-analyses as well as urine samples for proteomics are obtained throughout the study.

Which results are given for “anakinra: interleukin-1 receptor antagonist (r-metHuIL-1ra) produced in Escherichia coli; recombinant, slightly modified version of the human interleukin-1 receptor antagonist protein”?
patients with dramatic clinical improvement ([1]; daily 100 mg for seven days, ten BPS patients): 9/10; lasting therapeutic effects ([1]; human, in vivo): 3 days; quality of life, words ([1]; human, in vivo): increased quality of life; side effects ([1]; human, in vivo): Two patients reported local irritation at the injection site; symptom score (pain and frequency), words ([1]; human, in vivo): reduction in symptom score; quality of life, words ([1]; human, in vivo, listed as Kineret): marked increase in quality of life; symptom relief at the onset of treatment, median ([1]; median): 2 h; patients with complete, or close to complete clinical response ([1]; of ten patients): Nine of the patients; relief of symptoms after the first injection ([1]; one patient with very severe BPS/ICS): 1 to 2 h; duration of symptom relief ([1]; range over patients): 0.5 to 8 days; time to symptom relief after the first dose ([1]; range over patients): 1 to 6 h; symptom score (pain and frequency), words ([2]; P<0.01): reduction in symptom score; quality of life, words ([2]; P<0.02): increase in quality of life; patients with dramatic clinical effects ([2]; daily 100 mg, ten CPPS patients): 9/10; duration of symptom relief ([2]; range over patients): 0.5 to 8 days; time to symptom relief after the first dose ([2]; range over patients): 1 to 6 h; patients with significant reduction in pain, urgency and frequency of urination ([2]; ten CPPS patients): 9/10; side effects ([2]; ten CPPS patients, 100 mg): Two patients reported local irritation at the injection site; also recorded: one patient developed neutropenia; patients with reduced SP levels (Substance P; first treatment round): 9/10; urine SP / neuropeptide levels, words (Substance P): markedly decreased; urine SP / neuropeptide levels, words (Substance P; listed as Kineret): rapid reduction; urine IL-1β levels after Anakinra treatment (IL-1β): do not change; gene expression at the RNA level, words [3]: inhibited neuroinflammation and IL-1-dependent gene expression; also recorded: reduction in neuro-inflammation
